# Source: patent US7488738B2, “Aminophenoxyacetic acid derivatives and pharmaceutical composition containing thereof” (Asubio Pharma Co., Ltd., priority 1998, dated 2009)
# System: cells of cerebral cortex
# Experiment: Cytoprotective effect against glutamate induced cell death (MTT)
# Type: cell-based, rats of Wister strain
# Conditions: compound 1 μM added 24 h before 1 mM glutamate, fetal rat cerebral cortex cells, control group = 100%
# Experimental: Biological Test 1: Cytoprotective Effect Against Glutamate Induced Cell Death
# In accordance with the method of M. P. Mattoson [M. P. Mattoson, Brain Res. Rev., 13, 179 (1988)], brain of 18-days fetus rats of Wister strain were taken out. Then, cells of cerebral cortex (4×10^5 cells/ml) were seeded on poly-L-lysine coated 96 wells flat bottom plate (Sumitomo Bakelite Co., Ltd.) in concentration of 4×10^4 cells/each well. After 48 hours of incubation, 1 μM of test compounds were added, then after further 24 hours, 1 mM of glutamate were further added for inducing the cell injury. 12 hours after adding glutamate, MTT [3-(4,5-dimethylthiazol)-2,5-diphenyltetrazolium bromide] was added and incubated for 6 hours.
# After incubation, 200 μl of dimethy sulfoxide was added to each wells, and the amounts of reduced MTT were calorimetrically analyzed by Micro ELISA Reader using 570 nm of main-wavelength and 650 nm of sub-wavelength.
# The effect of the test compounds was determined as the survival rate of living cells (%) according to the following equation: Survival rate of living cells (%)=[(test compound group−glutamate treated group)÷(control group−glutamate treated group)]×100
# That is, the survival rate of living cells after incubation of the control group was converted to 100%, and the survival data of living cells of the tested compounds was shown in Table II.
row,SMILES,Survival Rate (%) (Compound: 1 μM)
1,"CN(C(=O)CNc1cc(Cl)c(N)cc1Cl)C1CCN(CCc2ccccc2)CC1 [Compound 138, 2-(4-Amino-2,5-dichloroanilino)-N-methyl-N-[1-(2-phenethyl)-4-piperidinyl]acetamide]",42
2,"Cc1cc(N)c(NCC(=O)N(C)C2CCN(C[C@@H]3C[C@H]3c3ccccc3)CC2)cc1C (relative stereo) [Compound 137, 2-(2-Amino-4-5-dimethylanilino)-N-methyl-N-[1-(trans-2-phenyl-1-cyclopropylmethyl)-4-piperidinyl]acetamide]",71
3,"Cc1c(C)c(OCC(=O)NC2CCN(CC(=O)Nc3ccccc3)CC2)c(Cl)c(C)c1N [Compound 91, 2-(4-Amino-2-chloro-3,5,6-trimethylphenoxy)-N-[1-(2-anilino-2-oxyethyl)-4-piperidinyl]acetamide]",203
4,"Cc1cc(OC(C)(C)C(=O)N(C)C2CCN(CC(=O)Nc3c(C)cccc3C)CC2)c(C)c(C)c1N [Compound 50, 2-(4-Amino-2,3,5-trimethylphenoxy)-2-methyl-N-[1-(2-(2,6-dimethyl)anilino-2-oxyethyl)-4-piperidinyl]-N-methyl-propamide]",54
5,"Cc1cc(OCC(=O)N(C)C2CCN(CC(=O)Nc3cc(Cl)c(N)cc3Cl)CC2)c(C)c(C)c1N [Compound 89, 2-(4-Amino-2,3,5-trimethylphenoxy)-N-[1-(2-(4-amino-2,5-dichloro)anilino-2-oxyethyl)-4-piperidinyl]-N-methylacetamide]",126
6,"Cc1cc(OC(C)(C)C(=O)NC2CCN(CC(=O)Nc3ccccc3C(C)(C)C)CC2)c(C)c(C)c1N [Compound 100, 2-(4-Amino-2,3,5-trimethylphenoxy)-2-methyl-N-[1-(2-(2-tert-butylanilino)-2-oxyethyl)-4-piperidinyl]propamide]",138
7,"Cc1c(C)c(NC(C)C(=O)N(C)C2CCN(CC3CC3)CC2)c(C)c(C)c1N (stereo not drawn) [Compound 121, 2-(4-Amino-2,3,5,6-tetramethylanilino)-N-[1-(cyclopropylmethyl)-4-piperidinyl]-N-methylpropamide]",82
8,"Cc1cc(OC(C)(C)C(=O)N(C)C2CCN(C/C=C/c3ccccc3)CC2)c(C)c(C)c1N [Compound 67, 2-(4-Amino-2,3,5-trimethylphenoxy)-2-methyl-N-methyl-N-{1-(3-phenyl-2-(E)-propenyl)-4-piperidinyl]propamide]",69
9,"Cc1cc(OC(C)C(=O)N(C)C2CCN(CC(O)COc3ccccc3)CC2)c(C)c(C)c1N (stereo not drawn) [Compound 103, 2-(4-Amino-2,3,5-trimethylphenoxy)-N-methyl-N-[1-(2-hydroxy-3-phenoxy)propyl-4-piperidinyl]propamide]",180
10,"Cc1cc(OC(C)C(=O)N(C)C2CCN(C/C=C/c3ccccc3)CC2)c(C)c(C)c1N (stereo not drawn) [Compound 62, 2-(4-Amino-2,3,5-trimethylphenoxy)-N-methyl-N-[1-(3-phenyl-2-(E)-propenyl)-4-piperidinyl]propamide]",63
11,"Cc1c(C)c(OCC(=O)N(C)C2CCN(CC(=O)Nc3cc(Cl)c(N)cc3Cl)CC2)c(Cl)c(C)c1N [Compound 92, 2-(4-Amino-2-chloro-3,5,6-trimethylphenoxy)-N-[1-(2-(4-amino-2,5-dichloro)anilino-2-oxyethyl)-4-piperidinyl]-N-methylacetamide]",66
12,"Cc1cc(C)c(NCC(=O)N(C)C2CCN(CC(=O)c3ccccc3)CC2)c(C)c1N [Compound 127, 2-(3-Amino-2,4,6-trimethylanilino)-N-methyl-N-[1-(2-phenyl-2-oxyethyl)-4-piperidinyl]acetamide]",72
13,"Cc1cc(OC(C)(C)C(=O)N(C)C2CCN(CC(=O)Nc3ccccc3C(C)(C)C)CC2)c(C)c(C)c1N [Compound 49, 2-(4-Amino-2,3,5-trimethylphenoxy)-2-methyl-N-[1-(2-tert-butylanilino-2-oxyethyl)-4-piperidinyl]-N-methylpropamide]",193
14,"Cc1cc(OC(C)(C)C(=O)NC2CCN(C[C@@H]3C[C@H]3c3ccccc3)CC2)c(C)c(C)c1N (relative stereo) [Compound 99, 2-(4-Amino-2,3,5-trimethylphenoxy)-2-methyl-N-[1-(trans-2-phenyl-1-cyclopropylmethyl)-4-piperidinyl]propamide]",151
15,"Cc1cc(C)c(NCC(=O)N(C)C2CCN(CC(O)COc3ccccc3)CC2)c(C)c1N (stereo not drawn) [Compound 126, 2-(3-Amino-2,4,6-tirmethylanilino)-N-[1-(2-hydroxy-3-phenoxy)propyl-4-piperidinyl]-N-methylacetamide]",47
16,"CCN(C(=O)COc1c(C)c(C)c(N)c(C)c1Cl)C1CCN(CC(=O)Nc2cc(C)c(O)cc2C)CC1 [Compound 93, 2-(4-Amino-2-chloro-3,5,6-trimethylphenoxy)-N-[1-(2-(2,5-dimethyl-4-hydroxy)anilino-2-oxyethyl)-4-piperidinyl]-N-ethylacetamide]",171
17,"Cc1cc(OC(C)(C)C(=O)N(C)C2CCN(CC3(c4ccccc4)CC3)CC2)c(C)c(C)c1N [Compound 68, 2-(4-Amino-2,3,5-trimethylphenoxy)-2-methyl-N-methyl-N-[1-(1-phenyl-1-cyclopropane)methyl-4-piperidinyl]propamide]",75
18,"Cc1cc(OC(C)C(=O)N(C)C2CCN(CC3(c4ccccc4)CC3)CC2)c(C)c(C)c1N (stereo not drawn) [Compound 90, 2-(4-Amino-2,3,5-trimethylphenoxy)-N-methyl-N-[1-(1-phenyl-1-cyclopropane)methyl-4-piperidinyl]propamide]",149
19,"Cc1cc(OCC(=O)NC2CCN(CCc3ccccc3)CC2)c(C)c(C)c1N [Compound 97, 2-(4-Amino-2,3,5-trimethylphenoxy)-N-(1-(2-phenethyl)-4-piperidinyl)acetamide]",119
20,"Cc1cc(OC(C)(C)C(=O)NC2CCN(CC(=O)Nc3c(C)cccc3C)CC2)c(C)c(C)c1N [Compound 98, 2-(4-Amino-2,3-5-trimethylphenoxy)-2-methyl-N-[1-(2-(2,6-dimethylanilino)-2-oxyethyl)-4-piperidinyl]propamide]",120
21,"Cc1cc(OC(C)C(=O)NC2CCN(C[C@@H]3C[C@H]3c3ccccc3)CC2)c(C)c(C)c1N (relative stereo) [Compound 106, 2-(4-Amino-2,3,5-trimethylphenoxy)-N-[1-(trans-2-phenyl-1-cyclopropylmethyl)-4-piperidinyl]propamide]",151
22,"CCN(C(=O)C(C)Oc1cc(C)c(N)c(C)c1C)C1CCN(CC2(c3ccccc3)CC2)CC1 (stereo not drawn) [Compound 87, 2-(4-Amino-2,3,5-trimethylphenoxy)-N-ethyl-N-[1-(1-phenyl-1-cyclopropane)methyl-4-piperidinyl]propamide]",81
23,Cc1c(C)c(NCC(=O)N(C)C2CCN(Cc3ccc(C(N)=O)cc3)CC2)c(C)c(C)c1N [Compound 116],59
24,"Cc1cc(OCC(=O)NC2CCN(CC3(c4ccccc4)CC3)CC2)c(C)c(C)c1N [Compound 96, 2-(4-Amino-2,3,5-trimethylphenoxy)-N-[1-(1-phenyl-1-cyclopropane)methyl-4-piperidinyl]acetamide]",91

# Same assay, conditions: compound 1 μM added 24 h before 1 mM glutamate, fetal rat cerebral cortex cells, control group = 100%, read-out: Survival Rate (%) (Compound: 1 μM)
row,SMILES,viability at 1 µM [%]
1,"CCN(C(=O)CNc1c(C)c(C)c(N)c(C)c1C)C1CCN(C/C=C/c2ccccc2)CC1 [Compound 78, 2-(4-Amino-2,3,5,6-tetramethylanilino)-N-ethyl-N-[1-(3-phenyl-2-(E)-propenyl)-4-piperidinyl]acetamide]",96
2,"Cc1cc(C)c(NCC(=O)N(C)C2CCN(Cc3ccc4ccccc4c3)CC2)c(C)c1N [Compound 133, 2-(3-Amino-2,4,6-trimethylanilino)-N-methyl-N-[1-(2-naphthyl)methyl-4-piperidinyl]acetamide]",101
3,"CCN(C(=O)COc1cc(C)c(N)c(C)c1C)C1CCN(C/C=C/c2ccccc2)CC1 [Compound 74, 2-(4-Amino-2,3,5-trimethylphenoxy)-N-ethyl-N-[1-(3-phenyl-2-(E)-propenyl)-4-piperidinyl]acetamide]",87
4,"CCN(C(=O)CNc1c(C)c(C)c(N)c(C)c1C)C1CCN(C[C@@H]2C[C@H]2c2ccccc2)CC1 (relative stereo) [Compound 94, 2-(4-Amino-2,3,5,6-tetramethylanilino)-N-ethyl-N-[1-(trans-2-phenyl-1-cyclopropylmethyl)-4-piperidinyl]acetamide]",198
5,"Cc1c(C)c(NCC(=O)N(C)C2CCN(Cc3ccncc3)CC2)c(C)c(C)c1N [Compound 114, 2-(4-Amino-2,3,5,6-tetramethylanilino)-N-methyl-N-[1-(4-pyridylmethyl)-4-piperidinyl]acetamide]",50
6,"Cc1cc(OCC(=O)NC2CCN(C[C@@H]3C[C@H]3c3ccccc3)CC2)c(C)c(C)c1N (relative stereo) [Compound 95, 2-(4-Amino-2,3,5-trimethylphenoxy)-N-[1-(trans-2-phenyl-1-cyclopropylmethyl)-4-piperidinyl]acetamide]",61
